This experiment has as its system UV-killed Escherichia coli. The experiment is described as follows: Skin challenge (blister) model, intradermal UV-killed E. coli in healthy volunteers (Example 3). Type of experiment: in vivo, humans. On the procedure:
The ability of administration of a pharmaceutical composition including ajulemic acid to treat infection was assayed in a skin challenge model. A self-resolving acute inflammatory response was triggered by the intradermal injection of UV-killed Escherichia coli into the forearm of healthy volunteers. […] This study was performed to determine whether ajulemic acid promotes the resolution of infection at the site of inflammation, thereby treating that infection.
Cells and exudates were harvested at several time points following injection of UV-killed E. coli by applying negative pressure over the inflamed site.
The study included four experimental groups (n=10 in each group): • 1) Placebo, twice daily for four days • 2) Ajulemic acid, 5 mg, twice daily for four days • 3) Ajulemic acid, 20 mg, twice daily for four days • 4) Prednisone, 15 mg daily for four days
The volunteer (healthy males, 18-50 years) were randomly allocated to one of the above three groups and orally administered the test drug for four consecutive days. On the morning of the fourth day (after intake of the first dose), experimental acute inflammation was elicited by infection with UV-killed E. coli. The drug and the placebo were provided as capsules.
UV killed E. coli (Strain: NCTC 10418, Source: Public Health England, UK) were prepared as follows. E. coli described were grown overnight in Luria Broth (Sigma) at 37° C. The next morning, the bacteria were washed twice in sterile PBS (2500 g, 20 min, 4° C.) and resuspended in a sterile petri dish.
Bacteria were then killed by exposure to an ultraviolet light (UV) source (302 nm, ChemiDoc, trans-UV mode; Bio-Rad laboratories) for 60 min and then washed again in sterile saline. Bacterial counts were determined by optical density (OD600=0.365 equates to […] E. coli/ml). UVKEc were resuspended in a volume of sterile saline to obtain the count of 1.5×10^8/ml, aliquoted into sterile eppendorf tubes and then frozen at −80° C. until used for injections.
After disinfecting and shaving the skin, 1.5×10^7 UVKEc in 100 μl saline were injected intradermally into a marked site on the volar aspect of each forearm. To characterize the treatment of infection using ajulemic acid, each forearm was allotted to one of the predefined time-points namely 4, 8, 14, 24, 48 or 72 hours (h). Thus the effects of intradermal injection of UVKEc were allowed to progress for the duration of the time-point after which a suction blister was raised over the marked injection site, and then aspirated immediately. In summary, volunteer had two injection sites, one on each forearm, and contributed to two time points. On a separate group of volunteers, blister was raised on the naïve skin and treated as the baseline time point. Study time-points were discussed with volunteers before consenting.
Laser Doppler Imager (moor LDI-HIR, Moor Instruments Ltd, Axminster, Devon, UK) was used to quantify the blood flow at the site of infection. At predefined time points after injection of UVKEc, the forearm was placed under the scanner at a fixed distance to scan a fixed area. The scanner emits a laser beam, a portion of which is scattered by red blood cells present at the inflamed area. The scattering causes a change in frequency of the reflected light which is then detected by a photo detector. The velocity and concentration of red blood cells at the site directly affect the Doppler frequency shifts and account for the signal strength measured in arbitrary perfusion units. […] The total blood flow (measured in perfusion units) was calculated as product of number of valid pixels above background signal (Cut-off=300 perfusion units) and the mean blood flow signal over the valid pixels 11, 12.
To obtain the exudate from the site of infection, a 10 mm diameter suction blister was induced directly over the site of injection. […]

Here are results for one molecule from patent US20200405687A1, “METHODS FOR THE TREATMENT OF INFECTION” (Corbus Pharmaceuticals, Inc., priority 2016, published 2020).

Molecules are shown by their SMILES.

Turning to `C[C@]12C=CC(=O)C=C1CC[C@@H]1[C@@H]2C(=O)C[C@@]2(C)[C@H]1CC[C@]2(O)C(=O)CO` [prednisone, reference compound], the “rise in C-reactive protein (CRP) levels in serum” value (after UVKEc triggered acute inflammation, multiple time points) is on record as “does appear to inhibit the rise in CRP”. For the same molecule, the “infiltration of neutrophils at the site of inflammation (blister exudate)” value (ajulemic acid 5 mg or 20 mg BID, prednisone 15 mg daily, 4 h and 10 h, relative to placebo) is listed as “decrease in the infiltration of neutrophils”. In addition, under “ajulemic acid 5 mg or 20 mg BID, prednisone 15 mg daily, 4 hr and 10 hr, limulus amoebocyte lysate test”, the “levels of endotoxin at the site of injection” value is recorded as “appears to increase the levels of endotoxin”. Further, the bacterial clearance entry (prednisone 15 mg daily, four days) is “does not increase bacterial clearance and may slow the rate of bacterial clearance”.
